These results are taken from ChEMBL document CHEMBL1130939, “Alkyl side-chain derivatives of sordaricin as potent antifungal agents against yeast” (Bioorg Med Chem Lett, 1998).

Converted amounts (≈) assume the structure as drawn. A value given as a limit tells only on which side of the number the result lay.

In this test the test system is Saccharomyces cerevisiae. Nature of the test: Antifungal activity against Saccharomyces cerevisiae (strain YPH98). Format: functional, organism-based.
Broadly, the IC50 is the concentration at which inhibition is half-maximal. In turn, `CCCCCCCCCOC[C@]12CC3C(C)CCC3[C@@]3(C#N)CC1C=C(C(C)C)[C@@]23C(=O)O` (stereo partly specified) returned an IC50 of 1000 ng/mL (≈ 2190 nM).
Next, `CCCCCOC[C@]12CC3C(C)CCC3[C@@]3(C#N)CC1C=C(C(C)C)[C@@]23C(=O)O` (stereo partly specified): 0.01 ng/mL (≈ 0.025 nM); `COC[C@]12CC3C(C)CCC3[C@@]3(C#N)CC1C=C(C(C)C)[C@@]23C(=O)O` (stereo partly specified): 1000 ng/mL (≈ 2910 nM).
The compound `CCCCCCOC[C@]12CC3C(C)CCC3[C@@]3(C#N)CC1C=C(C(C)C)[C@@]23C(=O)O` (stereo partly specified) yielded a 50% inhibitory concentration (IC50) of 0.3 ng/mL (≈ 0.725 nM).
Next, `CCOC[C@]12CC3C(C)CCC3[C@@]3(C#N)CC1C=C(C(C)C)[C@@]23C(=O)O` (stereo partly specified): 500 ng/mL (≈ 1400 nM); `CCOC[C@]12CC3C(C)CCC3[C@@]3(C=O)CC1C=C(C(C)C)[C@@]23C(=O)O` (stereo partly specified): 60 ng/mL (≈ 166 nM).
In the case of `CC(C)COC[C@]12CC3C(C)CCC3[C@@]3(C#N)CC1C=C(C(C)C)[C@@]23C(=O)O` (stereo partly specified), the IC50 stood at 30 ng/mL (≈ 77.8 nM).
Compound `CCCOC[C@]12CC3C(C)CCC3[C@@]3(C=O)CC1C=C(C(C)C)[C@@]23C(=O)O` (stereo partly specified) showed a half-inhibitory concentration (IC50) of 60 ng/mL (≈ 160 nM).
Turning to `CC(C)C1=CC2C[C@]3(C#N)C4CCC(C)C4C[C@]2(CO)[C@]13C(=O)O` (stereo partly specified), the IC50 came out at 20000 ng/mL (≈ 60700 nM).
Turning to `CCCCCCCOC[C@]12CC3C(C)CCC3[C@@]3(C=O)CC1C=C(C(C)C)[C@@]23C(=O)O` (stereo partly specified), the IC50 amounted to 300 ng/mL (≈ 697 nM).
For the compound `COC1C(C)OC(OCC23CC4C(C)CCC4[C@@]4(C#N)C[C@@H]2C=C(C(C)C)[C@@]34C(=O)O)C(O)C1O` (stereo partly specified), inhibition was half-maximal at 2000 ng/mL (≈ 4080 nM) (IC50).
For `CCCCCCCOC[C@]12CC3C(C)CCC3[C@@]3(C#N)CC1C=C(C(C)C)[C@@]23C(=O)O` (stereo partly specified), the IC50 came out at 100 ng/mL (≈ 234 nM).
On to `CCCCOC[C@]12CC3C(C)CCC3[C@@]3(C=O)CC1C=C(C(C)C)[C@@]23C(=O)O` (stereo partly specified), for which the IC50 stood at 0.1 ng/mL (≈ 0.257 nM).
With `CCCCCCCCOC[C@]12CC3C(C)CCC3[C@@]3(C#N)CC1C=C(C(C)C)[C@@]23C(=O)O` (stereo partly specified), the IC50 was found to be 200 ng/mL (≈ 453 nM).
The compound `CCCOC[C@]12CC3C(C)CCC3[C@@]3(C#N)CC1C=C(C(C)C)[C@@]23C(=O)O` (stereo partly specified) gave a concentration for half-maximal inhibition (IC50) of 90 ng/mL (≈ 242 nM).
Take `CC(C)COC[C@]12CC3C(C)CCC3[C@@]3(C=O)CC1C=C(C(C)C)[C@@]23C(=O)O` (stereo partly specified): the half-inhibitory concentration (IC50) was determined as 0.1 ng/mL (≈ 0.257 nM).
As for `CCCCCCCCCOC[C@]12CC3C(C)CCC3[C@@]3(C=O)CC1C=C(C(C)C)[C@@]23C(=O)O` (stereo partly specified), the IC50 came out at 50000 ng/mL (≈ 109000 nM).
Regarding `CC(C)CCOC[C@]12CC3C(C)CCC3[C@@]3(C#N)CC1C=C(C(C)C)[C@@]23C(=O)O` (stereo partly specified), the half-inhibitory concentration (IC50) is 0.01 ng/mL (≈ 0.025 nM).
With `CO[C@H]1[C@@H](O)[C@H](O)[C@H](OC[C@@]23C[C@@H]4[C@H](C)CC[C@H]4[C@@]4(C=O)CC2C=C(C(C)C)[C@@]34C(=O)O)O[C@@H]1C` [SORDARIN], the IC50 worked out at 10000 ng/mL (≈ 20300 nM).
The compound `CC(C)C1=CC2C[C@]3(C=O)C4CCC(C)C4C[C@]2(CO)[C@]13C(=O)O` (stereo partly specified) [SORDARICIN] gave an IC50 of more than 250000 ng/mL.
`CCCCCCCCOC[C@]12CC3C(C)CCC3[C@@]3(C=O)CC1C=C(C(C)C)[C@@]23C(=O)O` (stereo partly specified): the IC50 was 400 ng/mL (≈ 900 nM).
For `CCCCCCOC[C@]12CC3C(C)CCC3[C@@]3(C=O)CC1C=C(C(C)C)[C@@]23C(=O)O` (stereo partly specified), the midpoint of inhibition, the IC50, lay at 15 ng/mL (≈ 36 nM).
Consider `CCCCOC[C@]12CC3C(C)CCC3[C@@]3(C#N)CC1C=C(C(C)C)[C@@]23C(=O)O` (stereo partly specified), for which half-maximal inhibition (IC50) required 30 ng/mL (≈ 77.8 nM).
As to `CCCCCOC[C@]12CC3C(C)CCC3[C@@]3(C=O)CC1C=C(C(C)C)[C@@]23C(=O)O` (stereo partly specified), the IC50 is 0.01 ng/mL (≈ 0.0248 nM).
`COC[C@]12CC3C(C)CCC3[C@@]3(C=O)CC1C=C(C(C)C)[C@@]23C(=O)O` (stereo partly specified) displayed an IC50 of 100 ng/mL (≈ 289 nM).
In turn, `CC(C)CCOC[C@]12CC3C(C)CCC3[C@@]3(C=O)CC1C=C(C(C)C)[C@@]23C(=O)O` (stereo partly specified) returned a concentration for half-maximal inhibition (IC50) of 0.01 ng/mL (≈ 0.0248 nM).
